The values below come from patent US20030215564A1, “Method and apparatus for coating an endoprosthesis” (priority 2002, published 2003).

Holding throughout (type): physicochemical
Data set [1] is described as follows: Effect of crimping on amount of paclitaxel on spin-coated stents (HPLC). The source says: Each stent was then removed from the reservoir, shaken briskly, and allowed to dry.
Data set [2] can be described thus: Amount of paclitaxel deposited on Palmaz-Schatz stents, manual coating method (HPLC). As to the method: In this example, Palmaz-Schatz stents were coated with paclitaxel using a manual method. The amount of paclitaxel deposited was then determined.
Each stent was then removed from the reservoir, shaken briskly, and allowed to dry. […] The solvent system consisted of 45% acetonitrile and 55% water delivered by a pair of Gilson 305/306 pumps with a flow rate of 1.5 ml/minute.

A short description of data set [3]: Effect of stent expansion on paclitaxel content of spin-coated stents (HPLC). The following applies: spin-coated 12,000 RPM two seconds, 44 mg/ml ethanolic paclitaxel. The source says:
After a stent is crimped onto a catheter as in example 4, it is ready for deployment in the body. The stent is properly positioned with a catheter, and is then expanded, for example by inflation of a balloon tip around which the stent is mounted. The balloon inflation expands the stent and forces it into proper position in the wall of the hollow organ. This has an additional physical impact on the stent, and has the potential to further degrade its coating.

Data set [4] in a line: Effect of crimping on amount of paclitaxel on manually coated stents (HPLC). The following applies: manual coating, after crimping. The source says:
Prior to being deployed inside a blood vessel, some vascular stents must be crimped onto a balloon-tipped catheter. Once the stent is positioned on the catheter, the catheter-stent assembly is advanced in the blood vessel to the site of obstruction. The balloon is then expanded, which deploys the stent in its proper position.
Since the manual coating method leads to uneven, fragile coating (see Examples 1-3), it seemed likely that the process of crimping would exacerbate the problem of flaking and drug loss. To demontstrate this problem, the amount of paclitaxel on stents before and after crimping was determined. […] Each stent was then removed from the reservoir, shaken briskly, and allowed to dry.

Molecules are shown by their SMILES.

Regarding `CC(=O)O[C@H]1C(=O)[C@@]2(C)[C@H]([C@H](OC(=O)c3ccccc3)[C@]3(O)C[C@H](OC(=O)[C@H](O)[C@@H](NC(=O)c4ccccc4)c4ccccc4)C(C)=C1C3(C)C)[C@]1(OC(C)=O)CO[C@@H]1C[C@@H]2O` [Paclitaxel, paclitaxel], the “Amount of drug—crimped (mean ± standard deviation)” value was 6.4 ± 2.1 µg in data set [1] (paclitaxel 18 mg/ml); 12.6 ± 1.2 µg in data set [1] (paclitaxel 28 mg/ml); 57.9 ± 33.0 µg in data set [4] (paclitaxel 37 mg/ml); 127.1 ± 34.6 µg in data set [4] (paclitaxel 42 mg/ml); 106.3 ± 53.8 µg in data set [4] (paclitaxel 66 mg/ml). Moreover, the “Amount of drug deposited (mean ± standard deviation)” value in data set [2] (paclitaxel 13 mg/ml in 95% ethanol) worked out at 19.5 ± 7.7 µg; in data set [2] (paclitaxel 27 mg/ml in 95% ethanol) it was 59.8 ± 17.6 µg; in data set [2] (paclitaxel 37 mg/ml in 95% ethanol) it was 80.4 ± 27.7 µg; in data set [2] (paclitaxel 42 mg/ml in 95% ethanol) it was 141.3 ± 43.0 µg; in data set [2] (paclitaxel 66 mg/ml in 95% ethanol), 198.3 ± 72.0 µg. The “paclitaxel amount, expanded stent” value in data set [3] (crimp-mounted, expanded in water) turned out to be 26.9 µg. In addition, in data set [3] (unexpanded), the “mean paclitaxel amount, unexpanded stents” value stood at 32.8±5.9 μg/stent.
